In ChEMBL document CHEMBL5665440, “ASAP - In vitro liver microsomal stability” (2024):

Assay: Human liver microsomal stability of compound in microsomal protein, PBS buffer pH 7.4, NADPH, glucose-6-phosphate and glucose-6-phosphate dehydrogenase media. Aliquotes were taken at 5 time points and after stopping the reaction, supernatants were analyzed using HPLC coupled with a tandem mass spectrometer. The elimination constant, half-life, and intrinsic clearance are determined as results using linear regression analysis.
Type: ADME, microsomes, Microsome
Conditions: for half-life / microsomal CLint: liver microsomes
Throughout, for Remaining (without cofactor): time not given here.
Throughout, for Remaining: time not given here.

half-life	microsomal CLint	Remaining (microsomes)	Remaining (without cofactor) (microsomes)	T1/2 (microsomes)	Compound
0.233 h	119 µL/min/mg	15.029%	93.83%	–	CCOc1cccc(-c2ccc(S(=O)(=O)Nc3ccc(Cl)cc3C(=O)O)cc2)c1
1.64 h	17 µL/min/mg	76.547%	105.768%	–	NCc1cccc(NC(=O)C[C@@H](NC(=O)OCc2ccccc2)c2ccc(OCc3ccccc3)cc2)c1
0.601 h	46.3 µL/min/mg	46.707%	96.205%	–	O=C(Nc1cc(Cl)cc([C@H]2CN(Cc3ccccc3)C[C@@H]2c2cccc(-c3nn[nH]n3)c2)c1)OCc1ccccc1
> 2.89 h	< 10 µL/min/mg	88.987%	100.499%	–	O=C(Nc1cc(Cl)cc(C(=O)Nc2cccc(-c3nnn[nH]3)c2)c1)OCc1ccccc1
> 2.89 h	< 10 µL/min/mg	114.72%	98.952%	–	CCc1cc(C(=O)Nc2cccc(CN)c2)sc1-c1ccc(Cl)cc1
0.0813 h	343 µL/min/mg	0.295%	109.106%	–	O=C(O)c1cc(Cl)ccc1NS(=O)(=O)c1ccc(-c2ccccc2Cl)cc1
> 2.89 h	< 10 µL/min/mg	100.832%	95.38%	–	O=C(Nc1cc(Cl)cc(C(=O)Nc2n[nH]c3c2CNC3)c1)OCc1ccccc1
> 2.89 h	< 10 µL/min/mg	85.255%	101.935%	–	O=C(Nc1ccc2c(c1)CNC2)c1cc(Cl)cc2c1CCC2
2.04 h	13.6 µL/min/mg	82.243%	110.789%	–	N#C[C@H](Nc1cccc(-c2nn[nH]n2)c1)c1cc(Cl)cc(NC(=O)OCc2ccccc2)c1
1.25 h	22.3 µL/min/mg	70.445%	101.396%	–	Cc1cc(OCc2ccccc2)ccc1NS(=O)(=O)c1ccc(Cl)cc1C(=O)O
> 2.89 h	< 10 µL/min/mg	101.28%	99.543%	–	CC(C)c1nc2c(C(=O)Nc3cccc(CN)c3)cccc2[nH]1
2.6 h	11 µL/min/mg	83%	101%	–	NCc1cccc(NC(=O)CN(C(=O)OCc2ccccc2)c2ccc(OCc3ccccc3)cc2)c1
> 2.89 h	< 10 µL/min/mg	97.01%	105.868%	–	CNC(=O)[C@H](Nc1cccc(-c2nn[nH]n2)c1)c1cc(Cl)cc2[nH]ncc12
0.4 h	70 µL/min/mg	33%	104%	–	O=C(NCC(F)(F)F)c1cc(Cl)c(F)cc1NS(=O)(=O)c1ccc(Oc2ccccc2Cl)cc1
> 2.89 h	< 10 µL/min/mg	83.745%	108.267%	–	Cn1ncc2c(C(=O)Nc3ccc4c(c3)CNC4)cc(Br)cc21
1.31 h	21 µL/min/mg	69%	103%	–	NCc1cccc(NC(=O)c2cc(OCc3ccccc3)ccc2CNC(=O)OCc2ccccc2)c1
2.21 h	12.6 µL/min/mg	77.895%	94.537%	–	NCc1cccc(NC(=O)[C@@H](NC(=O)OCc2ccccc2)C(C2CCC2)C2CCC2)c1
> 2.89 h	< 10 µL/min/mg	98.934%	109.497%	–	O=C(O)COc1cccc(NC(=O)c2cc(Cl)cc(NC(=O)OCc3ccccc3)c2)c1
0.482 h	57.7 µL/min/mg	39.342%	94.838%	–	Cc1c(C(=O)Nc2cc([C@H]3CCOC3)ccn2)cc(C2CC2)n1C
2.19 h	12.7 µL/min/mg	81.215%	98.946%	–	O=C(Nc1cc(Cl)cc(C(=O)Nc2ccc3c(c2)CNC3)c1)OCc1ccccc1
> 2.89 h	< 10 µL/min/mg	91.016%	98.201%	–	O=C(Nc1cc(Cl)cc(C(=O)Nc2cccc(C3CCNCC3)c2)c1)OCc1ccccc1
> 2.89 h	< 10 µL/min/mg	88.403%	97.11%	–	Cc1ccc(NC(=O)c2cc(Cl)cc(NC(=O)OCc3ccccc3)c2)cc1CN
> 2.89 h	< 10 µL/min/mg	98.4%	103.999%	–	CNC(=O)[C@H](Nc1cc(CN)cc(C(=O)O)c1)c1cc(Cl)cc(C2CC2)c1
> 2.89 h	< 10 µL/min/mg	93.548%	99.519%	–	O=C(Nc1cc(Cl)cc([C@H](Nc2cccc(-c3nn[nH]n3)c2)C(=O)NCc2ccccc2)c1)OCc1ccccc1
> 2.89 h	< 10 µL/min/mg	98.243%	100.684%	–	NCc1cccc(NC(=O)c2cccn3cc(CN4CCCC4)nc23)c1

half-life	microsomal CLint	Remaining (microsomes)	Remaining (without cofactor) (microsomes)	T1/2 (microsomes)	Compound
2.48 h	11.2 µL/min/mg	81.771%	105.363%	–	O=C(Nc1cc(Cl)cc(C(=O)Nc2cccc(-n3nn[nH]c3=O)c2)c1)OCc1ccccc1
> 2.89 h	< 10 µL/min/mg	93.647%	102.839%	–	NCc1cccc(NC(=O)c2cc(Cl)cc(NC(=O)OCc3ccccc3)c2)c1
1.33 h	21 µL/min/mg	124.297%	104.813%	–	NCc1cccc(NC(=O)c2cc(Cl)cc(CN)c2)c1
> 2.89 h	< 10 µL/min/mg	97.296%	93.037%	–	C=CC[C@H]1NCc2cc(NC(=O)c3cc(F)cc4[nH]ncc34)ccc21
1.59 h	17.5 µL/min/mg	76.258%	74.637%	–	NCCc1ccc(NC(=O)c2cc(Cl)cc(NC(=O)OCc3ccccc3)c2)cc1
0.425 h	65.5 µL/min/mg	34.146%	93.066%	–	C=CC[C@H](Nc1cccc(-c2nn[nH]n2)c1)c1cc(Cl)cc(NC(=O)OCc2ccccc2)c1
> 2.89 h	< 10 µL/min/mg	91.546%	107.23%	–	CC(C)NC(=O)[C@H](Nc1ccc2c(c1)CNC2)c1cc(Cl)cc2[nH]ncc12
> 2.89 h	< 10 µL/min/mg	95.463%	101.856%	–	CNC(=O)[C@H](Nc1cc(CN)cc(-c2nn[nH]n2)c1)c1cc(Cl)cc(C2CC2)c1
0.413 h	67.4 µL/min/mg	33.369%	97.65%	–	O=C(O)c1cc(Cl)c(F)cc1S(=O)(=O)Nc1ccc(Oc2ccccc2Cl)cc1
> 2.89 h	< 10 µL/min/mg	89.541%	103.012%	–	OCC#C[C@H](Nc1ccc2c(c1)CNC2)c1cc(Cl)cc2[nH]ncc12
0.14 h	198 µL/min/mg	4%	98%	–	CC(C)CNC(=O)c1cc(Cl)c(F)cc1NS(=O)(=O)c1ccc(Oc2ccccc2Cl)cc1
> 2.89 h	< 10 µL/min/mg	90.289%	100.18%	–	CNC(=O)[C@H](Nc1ccc(-c2nnn[nH]2)cc1)c1cc(Cl)cc(C2CC2)c1
0.89 h	31.3 µL/min/mg	58.639%	103.638%	–	O=C(N[C@H]1[C@H]2CCCCC[C@H]2[C@H]1C(=O)Nc1cccc(C2CCNCC2)c1)OCc1ccccc1
> 2.89 h	< 10 µL/min/mg	92.268%	98.779%	–	O=C(Nc1cc(Cl)cc(-c2ccc3[nH]c(C(=O)O)cc3c2)c1)OCc1ccccc1
2.71 h	10.3 µL/min/mg	84.178%	84.336%	–	N#C[C@H](Nc1ccc2c(c1)CNC2)c1cc(Cl)cc2[nH]ncc12
0.73 h	38.1 µL/min/mg	53.75%	101.907%	–	c1ccc2sc(C3CCN(Cc4c[nH]c5ccccc45)CC3)nc2c1
2.44 h	11.4 µL/min/mg	87.168%	92.769%	–	NCc1cccc([C@@H]2C[C@H]2c2cc(Cl)cc(NC(=O)OCc3ccccc3)c2)c1
2.33 h	12 µL/min/mg	81.554%	89.628%	–	N#C[C@H](Nc1cccc(C(=O)O)c1)c1cc(Cl)cc2[nH]ncc12
1.69 h	16 µL/min/mg	78.186%	103.226%	–	c1ccc2c(CN3CCC(c4c[nH]c5cccnc45)CC3)c[nH]c2c1
–	–	0%	109.308%	Half-life could not be determined	NCc1cc(Cl)cc(C(=O)Nc2ccc3c(c2)CNC3)c1
1.06 h	26.3 µL/min/mg	62.456%	103.505%	–	O=C(O)c1cc(Cl)ccc1S(=O)(=O)NC1CCN(c2nc(C3CC3)cc(C(F)(F)F)n2)CC1
1.12 h	24.9 µL/min/mg	66.587%	100.68%	–	CC[C@@H](Cc1nnn[nH]1)c1ccc(NC(=O)c2cc(Cl)cc(NC(=O)OCc3ccccc3)c2)cc1
> 2.89 h	< 10 µL/min/mg	101.103%	100.106%	–	O=C(O)Cn1ncc2cc(-c3cc(Cl)cc(NC(=O)OCc4ccccc4)c3)ccc21
0.943 h	29.5 µL/min/mg	62.909%	101.077%	–	Cc1cc(-c2ccc([C@@H](NC(=O)OCc3ccccc3)C(=O)Nc3cccc(CN)c3)cc2)cs1
